According to ChEMBL document CHEMBL1148515, “Enantiomerically pure 1,4-benzodiazepine-2,5-diones as Hdm2 antagonists” (Bioorg Med Chem Lett, 2006):

What was measured:
Assay type in all cases: functional
JAR [1] = test: Increase in caspase3/7 production in human JAR cells at 25 uM relative to control
JAR [2] = test: Increase in caspase3/7 production in human JAR cells at 50 uM relative to control
JAR [3] = test: Increase in caspase3/7 production in human JAR cells at 10 uM relative to control

Structure (SMILES) | Activity (JAR [1]) | Activity (JAR [2]) | Activity (JAR [3])
C[C@H](c1ccc(Cl)cc1)N1C(=O)c2cc(I)ccc2N(CCCCC(=O)O)C(=O)[C@@H]1c1ccc(Cl)cc1 | 1.37 | 1.97 | 0.97
COCCOCCN1C(=O)[C@H](c2ccc(Cl)cc2)N([C@H](C)c2ccc(Cl)cc2N)C(=O)c2cc(I)ccc21 | 2.84 | 2.92 | 1.29
C[C@H](c1ccc(Cl)cc1N)N1C(=O)c2cc(I)ccc2N(CCN2CCOCC2)C(=O)[C@@H]1c1ccc(Cl)cc1 | 2.87 | 2.89 | 0.9
